The values below come from patent US9309211B2, “Arylalkene derivatives and use thereof as selective estrogen receptor modulators” (Centaurus BioPharma Co., Ltd., priority 2011, dated 2016).

For data set [1], the system named is MCF-7 cells. The data set is described as follows: In vitro growth inhibitory potency of anti-estrogen activity in MCF-7 cells. It counts as cell-based, human. As to conditions: in the presence of E2, 7 days, Cell Titre Glo. How it is done: In Vitro Growth Inhibitory Potency of Anti-Estrogen Activity in MCF-7 Cells:
The estrogen receptor α (ERα) high expression human breast cancer MCF-7 cells (#HTB-22, A.T.C.C.) were cultured in DMEM medium supplemented by 10% fetal bovine serum (Gibco®) and 10 μg/ml bovine insulin (Sigma®). The cells were maintained in 75 cm^2 cell culture flask (Corning®) filled with 15 ml medium, 95% air and 5% CO2. Cells were split twice a week in a single layer cell culture.
For experiments related to 17β-Estradiol (E2), cells at logarithm growing stage were pretreated for two days without E2, the phenol red DMEM medium was replaced by the phenol red free DMEM/F12 medium, and FBS was replaced by 10% charcoal stripped FBS to remove the steroid and greatly decrease the hormone levels. Cells were seeded in 96 well cell culture plates (Corning®) with 4×10^3/well density, cultured in E2 free DMEM/F12 medium at 37° C. for 24 hours, 95% air and 5% CO2. All the compounds were stocked in DMSO as 0.01 M, serial diluted by the culture medium and added to the cells in the presence of proper E2 concentration. The final concentrations of compounds and DMSO were 3×10^−10˜1×10^−5 M and 0.1%. Cells were incubated at 37° C. for 7 days, medium containing E2 and compounds were changed every two days to maintain the chemical activity.
7 Days later, the viable cell numbers were calculated by the ATP amount from the luciferase quantity measurement (Cell Titre Glo® luciferase kit, Promega®). This method can be used to evaluate the stimulating estrogenicity of estrogen dependent cell growth under the condition of E2 free. The estrogenicity was tested by percentage compared to the maximum growth stimulation (100%) by E2. In this study, the percentage antagonist effects were evaluated by compared to the complete inhibition (100%) at the dose of 1×10^−5 M. The inhibition curves were generated by the reading numbers with the program Prism® 5, IC50 values were calculated.

Data set [2] has as its system MCF-7. The data set is described as follows: Anti-tumor (MCF-7) test in nude mice. It counts as in vivo. As to conditions: QD. How it is done: (§1) As shown in FIGURE and the table below, 21 days after the nude mouse was administered with Tamoxifen (20 mg/kg), the weight dropped by 20%, and a higher dose of 30 mg/kg of an exemplary compound of the present application, shown below as CT-946-01, led to a weight gain of 7%.

Data set [3] is described as follows: Weight change of nude mice during anti-tumor (MCF-7) test (toxicity). It counts as in vivo. As to conditions: for BW (% of vehicle): QD, nude mice. How it is done:
as §1

Broadly, the IC50 is the point on the concentration scale where inhibition reaches its midpoint.

For the compound `CC/C(=C(\c1ccc(O)cc1)c1ccc(OCCNC)nc1)c1ccccc1`, the IC50 in data set [1] (Homo sapiens, MCF7, 168 h) was below 100 nM.
With `CC/C(=C(/c1ccc(O)cc1)c1ccc(OCCNC)nc1)c1ccccc1`, the IC50 in data set [1] (Homo sapiens, MCF7, 168 h) was below 100 nM.
Regarding `CC/C(=C(\c1ccc(O)cc1)c1ccc(OCCN(C)C)nc1)c1ccccc1`, in data set [1] (Homo sapiens, MCF7, 168 h), the IC50 was below 100 nM.
Turning to `CC/C(=C(\c1ccc(O)cc1)c1ccc(OC2CCNC2)nc1)c1ccccc1` (centres unmarked), the IC50 in data set [1] (Homo sapiens, MCF7, 168 h) was below 100 nM.
Regarding `CCC(=C(c1ccc(O)cc1)c1ccc(CCCN2CCCC2)nc1)c1ccccc1`, the half-maximal inhibitory concentration (IC50) in data set [1] (Homo sapiens, MCF7, 168 h) is below 100 nM.
`CCC(=C(c1ccc(O)cc1)c1ccc(CCCN2CCCC2)cc1)c1ccccc1`: in data set [1] (Homo sapiens, MCF7, 168 h), the IC50 was below 100 nM.
On the same count and under the same terms, the same measure for `CCC(=C(c1ccc(O)cc1)c1ccc(CCCNC)nc1)c1ccccc1`: below 100 nM; for `CCC(=C(c1ccc(O)cc1)c1ccc(CCCNC)cc1)c1ccccc1`: below 100 nM; for `CCC(=C(c1ccc(O)cc1)c1ccc(C#CCN2CCCC2)c(F)c1)c1ccccc1`: below 100 nM.
Same read-out and setting: the same measure for `CC/C(=C(\c1ccc(O)cc1)c1ccc(OCCNC)cc1)C1CCC(=O)CC1`: below 100 nM; for `CCC(=C(c1ccc(O)cc1)c1ccc(OCCNC)c(Br)c1)c1ccccc1`: below 100 nM.
Regarding `CC/C(=C(/c1ccc(O)cc1)c1ccc(N(C)CCNC)nc1)c1ccccc1`, the IC50 in data set [1] (Homo sapiens, MCF7, 168 h) is below 100 nM.
As for `CCC(=C(c1ccc(O)cc1)c1ccc(O[C@@H]2CCNC2)cc1)c1ccccc1`, the IC50 in data set [1] (Homo sapiens, MCF7, 168 h) was below 100 nM.
Still for that read-out and setting: the result for `CCC(=C(c1ccc(O)cc1)c1ccn(CCCN(C)C)c(=O)c1)c1ccccc1` reads below 500 nM; that for `CCC(=C(c1ccc(O)cc1)c1ccc(OCCNC)c(F)c1)c1ccccc1`, below 100 nM; that for `CC/C(=C(/c1ccc(O)cc1)c1ccc(OCCNC)cc1)c1ccc(O)c(F)c1`, below 500 nM.
`CCC(=C(c1ccc(O)cc1)c1ccc(OCCNC)cc1)c1ccc2c(c1)CCO2`: in data set [1] (Homo sapiens, MCF7, 168 h), the IC50 was below 100 nM.
For `CCC(=C(c1ccc(O)cc1)c1ccc(OCCNC)cc1)c1ccc2nsnc2c1`, the 50% inhibitory concentration (IC50) in data set [1] (Homo sapiens, MCF7, 168 h) is below 100 nM.
Turning to `CC/C(=C(/c1ccc(O)cc1)c1ccc(OCCNC)cc1)c1ccc2[nH]ncc2c1`, the half-inhibitory concentration (IC50) in data set [1] (Homo sapiens, MCF7, 168 h) was below 100 nM.
Take `CCC(=C(c1ccc(O)cc1)c1ccc(OCCNC)cc1)c1ccc2occc2c1`: in data set [1] (Homo sapiens, MCF7, 168 h), the IC50 was below 100 nM.
On to `CC/C(=C(\c1ccc(OC)cc1)c1ccc(OCCNC)cc1)c1ccc2oc(Cl)cc2c1`, for which the IC50 in data set [1] (Homo sapiens, MCF7, 168 h) is below 500 nM.
Consider `CCC(=C(c1ccc(O)cc1)c1ccc(OCCN2CCCC2)cc1)c1ccc2oc(Cl)cc2c1`, for which the IC50 in data set [1] (Homo sapiens, MCF7, 168 h) is below 100 nM.
Still for that read-out and setting: the same measure for `CCC(=C(c1ccc(O)cc1)c1ccc(OCCN2CCOCC2)cc1)c1ccc2oc(Cl)cc2c1`: below 100 nM; for `CCC(=C(c1ccc(O)cc1)c1ccc(OCCN(CC)CC)cc1)c1ccc2oc(Cl)cc2c1`: below 100 nM.
Consider `CCC(=C(c1ccc(O)cc1)c1ccc(OCCN(C)C)cc1)c1ccc2oc(Cl)cc2c1`, for which the IC50 in data set [1] (Homo sapiens, MCF7, 168 h) is below 100 nM.
On to `CCC(=C(c1ccc(O)cc1)c1ccc(OCCN2CCNCC2)cc1)c1ccc2oc(Cl)cc2c1`, for which the IC50 in data set [1] (Homo sapiens, MCF7, 168 h) was below 100 nM.
On to `CCC(=C(c1ccc(O)cc1)c1ccc(SCCNC)nc1)c1ccc2oc(Cl)cc2c1`, for which the IC50 in data set [1] (Homo sapiens, MCF7, 168 h) is below 100 nM.
Same read-out and setting: the same measure for `CCC(=C(c1ccc(O)cc1)c1ccc(CCCN2CCCC2)nc1)c1ccc2oc(Cl)cc2c1`: below 100 nM.
Turning to `CCC(=C(c1ccc(O)cc1)c1ccc(OCCN(C)C)cn1)c1ccccc1`, the IC50 in data set [1] (Homo sapiens, MCF7, 168 h) was below 500 nM.
Consider `CCC(=C(c1ccc(O)cc1)c1ccc(CCCN(C)C)nc1)c1ccccc1`, for which the IC50 in data set [1] (Homo sapiens, MCF7, 168 h) is below 100 nM.
Take `CCC(=C(c1ccc(O)cc1)c1ccc(OCC2CCCN2C)cc1)c1ccccc1` (centres unmarked): in data set [1] (Homo sapiens, MCF7, 168 h), the IC50 was below 100 nM.
Turning to `CC/C(=C(\c1ccc(O)cc1)c1ccc(OCCN2CCCC2)nc1)c1ccccc1`, the concentration for half-maximal inhibition (IC50) in data set [1] (Homo sapiens, MCF7, 168 h) was below 100 nM.
Turning to `CC/C(=C(\c1ccc(O)cc1)c1ccc(OCCN2CCN(C)CC2)nc1)c1ccccc1`, the IC50 in data set [1] (Homo sapiens, MCF7, 168 h) is below 100 nM.
In the case of `CC/C(=C(\c1ccc(O)cc1)c1ccc(OCCN2CCCCC2)nc1)c1ccccc1`, the IC50 in data set [1] (Homo sapiens, MCF7, 168 h) was below 100 nM.
For the compound `CCC(=C(c1ccc(O)cc1)c1ccc(OCCNC)cc1)c1ccsc1`, the IC50 in data set [1] (Homo sapiens, MCF7, 168 h) was below 100 nM.
Take `CC/C(=C(/c1ccc(O)cc1)c1ccc(OCCNC)cc1)c1csc(Cl)c1`: the IC50 in data set [1] (Homo sapiens, MCF7, 168 h) was below 500 nM.
In the case of `CCC(=C(c1ccc(O)cc1)c1ccc(OCCNC)cc1)C1CCC(O)CC1` (centres unmarked), the IC50 in data set [1] (Homo sapiens, MCF7, 168 h) is below 500 nM.
As to `CC/C(=C(\c1ccc(O)cc1)c1ccc(SCCNC)nc1)c1ccccc1`, in data set [1] (Homo sapiens, MCF7, 168 h), the half-maximal inhibitory concentration (IC50) is below 100 nM.
`CCC(=C(c1ccc(O)cc1)c1ccc(OC[C@@H]2CCCN2)cc1)c1ccccc1`: the IC50 in data set [1] (Homo sapiens, MCF7, 168 h) is below 100 nM.
On the same count and under the same terms, the result for `CCC(=C(c1ccc(O)cc1)c1ccc(OC2CCNC2)cc1)c1ccccc1` (centres unmarked) reads below 100 nM; that for `CCC(=C(c1ccc(O)cc1)c1ccc(OCCNC)cc1)c1ccc(O)c(OC)c1`, below 500 nM.
As for `CC/C(=C(\c1ccc(O)cc1)c1ccc(OCCNC)cc1)c1ccc(O)c(F)c1`, the IC50 in data set [1] (Homo sapiens, MCF7, 168 h) was below 500 nM.
Consider `CCC(=C(c1ccc(OCCNC)cc1)c1ccc(O)c(F)c1)c1ccccc1`, for which the IC50 in data set [1] (Homo sapiens, MCF7, 168 h) was below 100 nM.
Still for that read-out and setting: the same measure for `CCC(=C(c1ccc(O)cc1)c1ccc(OCCNC)c(F)c1)c1ccc2c(c1)CCO2`: below 100 nM.
Consider `CC/C(=C(\c1ccc(O)cc1)c1ccc(OCCNC)cc1)c1ccc2[nH]ncc2c1`, for which, in data set [1] (Homo sapiens, MCF7, 168 h), the concentration for half-maximal inhibition (IC50) is below 100 nM.
Regarding `CNCCOc1ccc(C(=C(CCCl)c2ccc3c(c2)CCO3)c2ccc(O)cc2)cc1`, the IC50 in data set [1] (Homo sapiens, MCF7, 168 h) was below 100 nM.
Regarding `CC/C(=C(/c1ccc(O)cc1)c1ccc(OCCNC)cc1)c1ccc2oc(Cl)cc2c1`, the IC50 in data set [1] (Homo sapiens, MCF7, 168 h) was below 100 nM.
With `CCC(=C(c1ccc(O)cc1)c1ccc(OCCNC)nc1)c1ccc2c(c1)CCO2`, the IC50 in data set [1] (Homo sapiens, MCF7, 168 h) is below 100 nM.
Still for that read-out and setting: the result for `CCC(=C(c1ccc(O)cc1)c1ccc(OCCN2CCCCC2)cc1)c1ccc2oc(Cl)cc2c1` reads below 100 nM; that for `CCC(=C(c1ccc(O)cc1)c1ccc(OCCN2CCN(C)CC2)cc1)c1ccc2oc(Cl)cc2c1`, below 100 nM.
As to `CCNCCOc1ccc(C(=C(CC)c2ccc3oc(Cl)cc3c2)c2ccc(O)cc2)cc1`, the IC50 in data set [1] (Homo sapiens, MCF7, 168 h) is below 100 nM.
Turning to `CCC(=C(c1ccc(O)cc1)c1ccc(OCCN2CCCCCC2)cc1)c1ccc2oc(Cl)cc2c1`, in data set [1] (Homo sapiens, MCF7, 168 h), the IC50 is below 100 nM.
As for `CCC(=C(c1ccc(O)cc1)c1ccc(OCCNC)nc1)c1ccc2oc(Cl)cc2c1`, the IC50 in data set [1] (Homo sapiens, MCF7, 168 h) was below 100 nM.
Turning to `CCC(=C(c1ccc(O)cc1)c1ccc(N(C)CCNC)nc1)c1ccc2oc(Cl)cc2c1`, the IC50 in data set [1] (Homo sapiens, MCF7, 168 h) was below 100 nM.
For `CC/C(=C(\c1ccc(O)cc1)c1ccc(OCCN2CCOCC2)nc1)c1ccccc1` [CT-946-01], the “TGI (%) 21 days” value worked out at 108% in data set [2] (10 mg/kg PO) and 104% in data set [2] (30 mg/kg PO). For the same compound, the “BW (% of vehicle)” value in data set [3] (10 mg/kg PO) is 104 % of vehicle; in data set [3] (30 mg/kg PO), 107 % of vehicle. Moreover, the weight gain in data set [3] (30 mg/kg, 21 days after administration, nude mouse) worked out at 7%.
With `CC/C(=C(\c1ccccc1)c1ccc(OCCN(C)C)cc1)c1ccccc1` [Tamoxifen, reference compound], the “TGI (%) 21 days” value in data set [2] (20 mg/kg PO) is recorded as 22.4%. Besides, the “BW (% of vehicle)” value in data set [3] (20 mg/kg PO) is on record as 80.0 % of vehicle. The weight dropped in data set [3] (20 mg/kg, 21 days after administration, nude mouse) was 20%.
In the case of `CCC(=C(c1ccc(O)cc1)c1ccc(OCCNC)cc1)c1ccc2oc(Cl)cc2c1` [drawing 303], the IC50 in data set [1] is below 100 nM.
On to `CC/C(=C(\c1ccc(O)cc1)c1ccc(OCCN2CCOCC2)nc1)c1ccccc1` [drawing 318], for which, in data set [1] (Homo sapiens, MCF7, 168 h), the IC50 is below 100 nM.
For the compound `CCC(=C(c1ccc(O)cc1)c1ccc(OCCNC)cc1)c1ccc2oc(Cl)cc2c1` [drawing 331], the IC50 in data set [1] (Homo sapiens, MCF7, 168 h) was below 100 nM.
